Structures can show the parent of a compound that is named as a salt.
Molecular target: T1, HIV-1 RT (Human immunodeficiency virus type 1 group M subtype B, UniProt P03366)
Assay: Homopolymer HIV Reverse Transcriptase Assay: Inhibitor IC50 Determination
Format: biochemical
Settings: purified recombinant enzyme, poly(rA)/oligo(dT)16 template-primer, 5 nM HIV-1 RT, 37° C. 30 min; TABLE 3
Method: HIV-1 RT assay was carried out in 96-well Millipore filtermat NOB50 plates using purified recombinant enzyme and a poly(rA)/oligo(dT)16 template-primer in a total volume of 50 μL. The assay constituents were 50 mM Tris/HCl, 50 mM NaCl, 1 mM EDTA, 6 mM MgCl2, 5 μM dTTP, 0.1 μCi [^3H] dTTP, 5 μg/ml poly (rA) pre annealed to 2.5 μg/ml oligo (dT)16 and a range of inhibitor concentrations in a final concentration of 10% DMSO. Reactions were initiated by adding 5 nM HIV-1 RT and after incubation at 37° C. for 30 min, they were stopped by the addition of 50 μl ice cold 20% TCA and allowed to precipitate at 4° C. for 30 min. The precipitates were collected by applying vacuum to the plate and sequentially washing with 2×200 μl of 10% TCA and 2×200 μl 70% ethanol. Finally the plates were dried and radioactivity counted in a Wallac Microbeta 1450 after the addition of 15 μL scintillation fluid per well. IC50's (TABLE 3) were calculated by plotting % inhibition versus log10 inhibitor concentrations.

For `N#Cc1cc(Cl)cc(Oc2c(Cl)ccc(Cc3n[nH]c4ccccc34)c2F)c1` [Compound I-3, 3-Chloro-5-[6-chloro-2-fluoro-3-(1H-indazol-3-ylmethyl)-phenoxy]-benzonitrile], which IC50 is on record?
The IC50 was 52 nM.

Which IC50 does the source give for `N#Cc1cc(Oc2c(Br)ccc(Cc3cc(-c4ccccc4)[nH]n3)c2F)cc(C(F)F)c1` [Compound I-5, 3-[6-Bromo-2-fluoro-3-(5-phenyl-1H-pyrazol-3-ylmethyl)-phenoxy]-5-difluoromethyl-benzonitrile] here?
Its IC50 is 55 nM.

Tested on: not given
Assay: not given
Settings: not given

With `N#Cc1cc(Cl)cc(Oc2c(Br)ccc(Cc3n[nH]c4cnccc34)c2F)c1` as the compound, how does the melting point read?
The melting point was 182 to 186.9 °C.

For `Cn1nc(Cc2ccc(Br)c(Oc3cc(Cl)cc(C#N)c3)c2F)c2cccnc21`, which melting point is on record?
Its melting point is 138.6 to 142.6 °C.

Which melting point does the source give for `N#Cc1cc(Cl)cc(Oc2c(Br)ccc(Cc3n[nH]c4ncncc34)c2F)c1` here?
Its melting point is 215 to 218 °C.

Which melting point does the source give for `N#Cc1cc(Cl)cc(Oc2c(Br)ccc(Cc3n[nH]c4c([N+](=O)[O-])cccc34)c2F)c1` here?
The melting point was 214.2 to 216 °C.

Which melting point does the source give for `N#Cc1cc(C#N)cc(Oc2c(C3CC3)ccc(Cc3n[nH]c4ncccc34)c2F)c1` here?
The melting point was 221 to 223.6 °C.

Which melting point does the source give for `COc1ccc2c(Cc3ccc(Br)c(Oc4cc(Cl)cc(C#N)c4)c3F)n[nH]c2n1` here?
Its melting point is 223.8 to 225 °C.

Which melting point does the source give for `N#Cc1cc(Cl)cc(Oc2c(Br)ccc(Cc3n[nH]c4ncc(F)cc34)c2F)c1` here?
Its melting point is 206.5 to 209 °C.

For `Cc1ccc(Cc2n[nH]c3ncccc23)c(F)c1Oc1cc(Cl)cc(C#N)c1`, which melting point is on record?
The melting point was 215 to 218.8 °C.

For `CCc1ccc(Cc2n[nH]c3ncccc23)c(F)c1Oc1cc(Cl)cc(C#N)c1`, which melting point is on record?
Its melting point is 205 to 206.9 °C.

With `COc1ccc(Cc2n[nH]c3ncccc23)c(F)c1Oc1cc(C#N)cc(C(F)F)c1` as the compound, how does the melting point read?
Its melting point is 197.9 to 201.9 °C.

Which melting point does the source give for `N#Cc1cc(Oc2c(Br)ccc(Cc3n[nH]c4ncccc34)c2F)cc(C(F)F)c1` here?
The melting point was 192 to 194.4 °C.

With `N#Cc1cc(Cl)cc(Oc2c(Br)ccc(Cc3n[nH]c4c(C#N)cccc34)c2F)c1` as the compound, how does the melting point read?
The melting point was 250 to 251.1 °C.

For `N#Cc1cc(Oc2c(Br)ccc(Cc3n[nH]c4cnccc34)c2F)cc(C(F)F)c1`, which melting point is on record?
The melting point was 166 to 166.9 °C.

With `N#Cc1cc(Cl)cc(Oc2c(C3CC3)ccc(Cc3n[nH]c4ncccc34)c2F)c1` as the compound, how does the melting point read?
The melting point was 215 to 216.8 °C.

For `N#Cc1cc(Cl)cc(Oc2c(Br)ccc(Cc3n[nH]c4c(N)cccc34)c2F)c1`, which melting point is on record?
The melting point was 179.9 to 181.3 °C.

For `N#Cc1cc(Cl)cc(Oc2c(Br)ccc(Cc3n[nH]c4ccncc34)c2F)c1`, which melting point is on record?
The melting point was 216 to 218.5 °C.

Which melting point does the source give for `CS(=O)(=O)Nc1cccc2c(Cc3ccc(Br)c(Oc4cc(Cl)cc(C#N)c4)c3F)n[nH]c12` here?
Its melting point is 234 to 236 °C.

Which melting point does the source give for `N#Cc1cc(Cl)cc(Oc2c(Cl)ccc(Cc3cc(-c4ccccc4)[nH]n3)c2F)c1` here?
Its melting point is 148 to 150.1 °C.

With `Cc1ccc(Cc2n[nH]c3ncccc23)c(F)c1Oc1cc(C#N)cc(C(F)F)c1` as the compound, how does the melting point read?
Its melting point is 212.5 to 214.4 °C.

For `N#Cc1cc(Cl)cc(Oc2c(Cl)ccc(Cc3n[nH]c4ncccc34)c2F)c1`, which melting point is on record?
The melting point was 210 to 215.5 °C.

For `N#Cc1cc(Cl)cc(Oc2c(Br)ccc(Cc3n[nH]c4nnccc34)c2F)c1`, which melting point is on record?
The melting point was 237.6 to 240.8 °C.

With `CN1CCc2c(Cc3ccc(Br)c(Oc4cc(Cl)cc(C#N)c4)c3F)n[nH]c2C1=O` as the compound, how does the melting point read?
Its melting point is 235.5 to 237.1 °C.

Which melting point does the source give for `N#Cc1cc(Cl)cc(Oc2c(Br)ccc(Cc3n[nH]c4nccnc34)c2F)c1` here?
Its melting point is 204 to 205 °C.

For `N#Cc1cc(C#N)cc(Oc2c(Cl)ccc(Cc3n[nH]c4nnccc34)c2F)c1`, which melting point is on record?
The melting point was 222.8 to 224.7 °C.

For `N#Cc1cc(Cl)cc(Oc2c(C(F)F)ccc(Cc3n[nH]c4nnccc34)c2F)c1`, which melting point is on record?
Its melting point is 177.5 to 178.2 °C.

With `Cc1cc(C#N)cc(Oc2c(Cl)ccc(Cc3n[nH]c4nnccc34)c2F)c1` as the compound, how does the melting point read?
The melting point was 200 to 202.9 °C.

With `CS(=O)(=O)c1ccc(Cc2n[nH]c3nnccc23)c(F)c1Oc1cc(Cl)cc(C#N)c1` as the compound, how does the melting point read?
The melting point was 239.5 to 240.7 °C.

Which melting point does the source give for `N#Cc1cc(Cl)cc(Oc2c(Br)ccc(Cc3n[nH]c4nc(Cl)ccc34)c2F)c1` here?
Its melting point is 212.3 to 214 °C.

Which melting point does the source give for `N#Cc1cc(Cl)cc(Oc2c(Cl)ccc(Cc3n[nH]c4ccccc34)c2F)c1` [Compound I-3, 3-Chloro-5-[6-chloro-2-fluoro-3-(1H-indazol-3-ylmethyl)-phenoxy]-benzonitrile] here?
The melting point was 163.3 to 163.7 °C.

For `N#Cc1cc(Oc2c(Br)ccc(Cc3cc(-c4ccccc4)[nH]n3)c2F)cc(C(F)F)c1` [Compound I-5, 3-[6-Bromo-2-fluoro-3-(5-phenyl-1H-pyrazol-3-ylmethyl)-phenoxy]-5-difluoromethyl-benzonitrile], which melting point is on record?
The melting point was 78.3 to 90.1 °C.

Which melting point does the source give for `N#Cc1cc(Cl)cc(Oc2c(Br)ccc(Cc3n[nH]c4ncccc34)c2F)c1` [Compound I-7, 3-[6-Bromo-2-fluoro-3-(1H-pyrazolo[3,4-b]pyridin-3-ylmethyl)-phenoxy]-5-chloro-benzonitrile] here?
Its melting point is 242 to 243 °C.

Which melting point does the source give for `N#Cc1cc(Cl)cc(Oc2c(Br)ccc(Cc3n[nH]c4nc(Cl)ncc34)c2F)c1` [Compound I-13, 3-[6-Bromo-3-(6-chloro-1H-pyrazolo[3,4-d]pyrimidin-3-ylmethyl)-2-fluoro-phenoxy]-5-chloro-benzonitrile] here?
Its melting point is 216 to 217.9 °C.

For `N#Cc1cc(C#N)cc(Oc2c(Br)ccc(Cc3n[nH]c4ncccc34)c2F)c1` [Compound I-16, 5-[6-Bromo-2-fluoro-3-(1H-pyrazolo[3,4-b]pyridin-3-ylmethyl)-phenoxy]-isophthalonitrile], which melting point is on record?
The melting point was 230 to 232.9 °C.

Which melting point does the source give for `N#Cc1cc(Oc2c(Cl)ccc(Cc3n[nH]c4ncccc34)c2F)cc(C(F)F)c1` [Compound I-28, 3-[6-Chloro-2-fluoro-3-(1H-pyrazolo[3,4-b]pyridin-3-ylmethyl)-phenoxy]-5-difluoromethyl-benzonitrile] here?
The melting point was 198 to 199 °C.

Molecular target: T1, HIV-1 RT
Assay: Heteropolymer HIV Reverse Transcriptase Assay: Inhibitor IC50 Determination
Format: biochemical
Settings: purified recombinant enzyme, poly(rA)/oligo(dT)16 template-primer, 4 nM HIV-1 RT, 37° C. 30 min; TABLE 2
Method: HIV-1 RT assay was carried out in 96-well Millipore MultiScreen MADVNOB50 plates using purified recombinant enzyme and a poly(rA)/oligo(dT)16 template-primer in a total volume of 50 μL. The assay constituents were 50 mM Tris/HCl, 50 mM NaCl, 1 mM EDTA, 6 mM MgCl2, 5 μM dTTP, 0.15 μCi [^3H] dTTP, 5 μg/ml poly (rA) pre annealed to 2.5 μg/ml oligo (dT)16 and a range of inhibitor concentrations in a final concentration of 10% DMSO. Reactions were initiated by adding 4 nM HIV-1 RT and after incubation at 37° C. for 30 min, they were stopped by the addition of 50 μl ice cold 20% TCA and allowed to precipitate at 4° C. for 30 min. The precipitates were collected by applying vacuum to the plate and sequentially washing with 3×200 μl of 10% TCA and 2×200 μl 70% ethanol. Finally, the plates were dried and radioactivity counted in a Packard TopCounter after the addition of 25 μl scintillation fluid per well. IC50's were calculated by plotting % inhibition versus log10 inhibitor concentrations.

For `N#Cc1cc(Oc2c(Br)ccc(Cc3n[nH]c4ccccc34)c2F)cc(C(F)F)c1` [Compound I-6, 3-[6-Bromo-2-fluoro-3-(1H-indazol-3-ylmethyl)-phenoxy]-5-difluoromethyl-benzonitrile], which IC50 is on record?
The IC50 was 11.8 nM.

Which IC50 does the source give for `N#Cc1cc(Cl)cc(Oc2c(Br)ccc(Cc3n[nH]c4ncccc34)c2F)c1` [Compound I-7, 3-[6-Bromo-2-fluoro-3-(1H-pyrazolo[3,4-b]pyridin-3-ylmethyl)-phenoxy]-5-chloro-benzonitrile] here?
Its IC50 is 7.6 nM.

For `N#Cc1cc(Cl)cc(Oc2c(Cl)ccc(Cc3n[nH]c4nnccc34)c2F)c1` [Compound I-11, 3-Chloro-5-[6-chloro-2-fluoro-3-(1H-pyrazolo[3,4-c]pyridazin-3-ylmethyl)-phenoxy]-benzonitrile], which IC50 is on record?
The IC50 was 1 nM.

Which IC50 does the source give for `N#Cc1cc(Cl)cc(Oc2c(Br)ccc(Cc3n[nH]c4nc(Cl)ncc34)c2F)c1` [Compound I-13, 3-[6-Bromo-3-(6-chloro-1H-pyrazolo[3,4-d]pyrimidin-3-ylmethyl)-2-fluoro-phenoxy]-5-chloro-benzonitrile] here?
The IC50 was 8.6 nM.

Which IC50 does the source give for `N#Cc1cc(C#N)cc(Oc2c(Br)ccc(Cc3n[nH]c4ncccc34)c2F)c1` [Compound I-16, 5-[6-Bromo-2-fluoro-3-(1H-pyrazolo[3,4-b]pyridin-3-ylmethyl)-phenoxy]-isophthalonitrile] here?
The IC50 was 3.3 nM.

Which IC50 does the source give for `N#Cc1cc(Oc2c(Cl)ccc(Cc3n[nH]c4ncccc34)c2F)cc(C(F)F)c1` [Compound I-28, 3-[6-Chloro-2-fluoro-3-(1H-pyrazolo[3,4-b]pyridin-3-ylmethyl)-phenoxy]-5-difluoromethyl-benzonitrile] here?
The IC50 was 3.7 nM.

For `Cn1c(=O)ccc2c(Cc3ccc(Br)c(Oc4cc(Cl)cc(C#N)c4)c3F)n[nH]c21` [Compound I-48, 3-[6-Bromo-2-fluoro-3-(7-methyl-6-oxo-6,7-dihydro-1H-pyrazolo[3,4-b]pyridin-3-ylmethyl)-phenoxy]-5-chloro-benzonitrile, TFA salt], which IC50 is on record?
Its IC50 is 0.9 nM.

— US8063064B2, “Non-nucleoside reverse transcriptase inhibitors” (Roche Palo Alto LLC, priority 2006, dated 2011)
